Source: US11787833B2, “Modified cyclic dinucleoside compounds as sting modulators” (ALIGOS THERAPEUTICS, INC., priority 2019, dated 2023)
Like-named read-outs stand apart in the source and are kept apart here.

Molecular target: T1, 293T-Dual hSTING-R232 cells (Homo sapiens, UniProt Q86WV6, H232R)
T1 construct: host or cells: 293T-Dual hSTING-R232 cells (HEK 293T)
Experiment: 293T R232 cell reporter assay (HEK 293T reporter assay)
Assay type: cell-based
Details: digitonin 10 μg/mL, 30 min exposure, 20 h incubation
Description: 293T-Dual hSTING-R232 cells (Invivogen) were plated in 96 well plates at a density of 5×10^4 cells per well in DMEM supplemented with 10% FBS, 1% Pen-Strep, 1% non-essential amino acids, 1% glutamine, and 1% HEPES. Assay setup took place after allowing cells to adhere for 48 h. Compounds dissolved in water were serially diluted in dosing buffer containing 10 μg/mL digitonin. Media was aspirated from the cells, and 50 μL buffer with compound was added in triplicate. After 30 min at 37° C., buffer was aspirated and replaced with 100 μL media. Cells were incubated for 20 h at 37° C., 5% CO2. IFN-beta expression and activation of the interferon regulatory factor (IRF) were measured based on luciferase and alkaline phosphatase reporter activity, respectively. Cell viability was determined in parallel.

[1] = alkaline phosphatase reporter, read-out: EC50 [μM] IRF reporter
[2] = luciferase reporter, read-out: EC50 [μM] IRN-β reporter
[3] = EC50 [μM] IRF reporter, alkaline phosphatase reporter
[4] = EC50 [μM] IRN-β reporter, luciferase reporter

T1 sequence (Q86WV6 whole entry H232R): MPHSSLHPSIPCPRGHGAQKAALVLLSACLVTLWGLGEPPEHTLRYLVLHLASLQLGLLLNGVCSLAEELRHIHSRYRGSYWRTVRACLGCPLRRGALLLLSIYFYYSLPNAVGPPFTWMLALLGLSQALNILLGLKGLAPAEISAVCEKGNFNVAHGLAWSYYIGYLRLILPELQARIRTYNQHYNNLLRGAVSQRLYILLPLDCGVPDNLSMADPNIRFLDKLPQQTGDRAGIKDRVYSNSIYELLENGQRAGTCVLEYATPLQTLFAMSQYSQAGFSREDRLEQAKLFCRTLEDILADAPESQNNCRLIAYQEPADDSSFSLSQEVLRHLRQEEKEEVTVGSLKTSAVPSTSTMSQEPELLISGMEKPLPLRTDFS

EC50 [1] [µM]	EC50 [2] [µM]	SMILES	EC50 [3] [µM]	EC50 [4] [µM]
0.25 to 100	0.25 to 100	COC1C2COP(=O)(S)OC3C(O)C(n4cnc5c(N)ncnc54)C4CC43COP(=O)(S)OC1C(n1cnc3c(=O)[nH]c(N)nc31)O2 (single isomer, unassigned) [Compound 1-6a]	–	–
0.25 to 100	–	COC1C2COP(=O)(S)OC3C(O)C(n4cnc5c(N)ncnc54)C4CC43COP(=O)(S)OC1C(n1cnc3c(=O)[nH]c(N)nc31)O2 (single isomer, unassigned) [Compound 1-6b]	–	–
0.25 to 100	> 100	Nc1ncnc2c1ncn2C1OC2COP(=O)(S)OC3C(O)C(n4cnc5c(N)ncnc54)C4CC43COP(=O)(S)OC1C2O (single isomer, unassigned) [Compound 1-14a]	–	–
0.25 to 100	> 100	Nc1ncnc2c1ncn2C1OC2COP(=O)(S)OC3C(O)C(n4cnc5c(N)ncnc54)C4CC43COP(=O)(S)OC1C2O (single isomer, unassigned) [Compound 1-14b]	–	–
0.25 to 100	0.25 to 100	Nc1nc2c(ncn2C2SC3COP(=O)(S)OC4C(O)C(n5cnc6c(N)ncnc65)C5CC54COP(=O)(O)OC2C3O)c(=O)[nH]1 (single isomer, unassigned) [Compound 1-30a]	–	–
> 100	> 100	Nc1nc2c(ncn2C2SC3COP(=O)(S)OC4C(O)C(n5cnc6c(N)ncnc65)C5CC54COP(=O)(O)OC2C3O)c(=O)[nH]1 (single isomer, unassigned) [Compound 1-30b]	–	–
0.25 to 100	0.25 to 100	COC1C2COP(=O)(S)OC3C(COP(=O)(S)OC1C(c1snc4c(=O)[nH]c(N)nc14)O2)OC(n1cnc2c(N)ncnc21)C3F (single isomer, unassigned) [Compound 1-48a]	–	–
< 0.25	< 0.25	COC1C2COP(=O)(S)OC3C(COP(=O)(S)OC1C(c1snc4c(=O)[nH]c(N)nc14)O2)OC(n1cnc2c(N)ncnc21)C3F (single isomer, unassigned) [Compound 1-48b]	–	–
0.25 to 100	> 100	CO[C@H]1[C@H]2OP(=O)(O)OC[C@@]34C[C@@H]3[C@@H](n3cnc5c(N)ncnc53)[C@H](OP(=O)(O)OC[C@H]1O[C@H]2n1cnc2c(=O)[nH]c(N)nc21)[C@@H]4O [Compound 1-3]	–	–
< 0.25	< 0.25	CO[C@H]1[C@H]2OP(=O)(O)OC[C@@]34C[C@@H]3[C@@H](n3ccc5c(N)ncnc53)[C@H](O)[C@@H]4OP(=O)(O)OC[C@H]1O[C@H]2n1cnc2c(=O)[nH]c(N)nc21 [Compound 1-4]	–	–
< 0.25	< 0.25	COC1C2COP(=O)(O)OC3C(COP(=O)(O)OC1C(c1scc4c(=O)[nH]c(N)nc14)O2)OC(n1cnc2c(N)ncnc21)C3F (stereo not drawn) [Compound 1-5]	–	–
< 0.25	< 0.25	CO[C@H]1[C@H]2OP(=O)(O)OC[C@@H]3[C@@H](OP(=O)(O)OC[C@H]1O[C@H]2n1cnc2c(=O)[nH]c(N)nc21)[C@@H](O)[C@]1(n2cnc4c(N)ncnc42)C[C@@H]31 [Compound 1-7]	–	–
0.25 to 100	0.25 to 100	Nc1nc2c(ncn2[C@H]2[C@@H]3OP(=O)(O)OC[C@H]4O[C@@H](n5cnc6c(N)ncnc65)[C@H](F)[C@@H]4OP(=O)(O)OC[C@]4(C[C@H]24)[C@H]3O)c(=O)[nH]1 [Compound 1-8]	–	–
< 0.25	< 0.25	Nc1nc2c(ncn2[C@H]2[C@H](O)[C@@H]3OP(=O)(O)OC[C@H]4O[C@@H](n5cnc6c(N)ncnc65)[C@H](F)[C@@H]4OP(=O)(O)OC[C@@]34C[C@H]24)c(=O)[nH]1 [Compound 1-9]	–	–
–	–	CO[C@H]1[C@H]2OP(=O)(O)OC[C@]34C[C@@H]3[C@@H](n3cnc5c(N)ncnc53)[C@H](O)[C@@H]4O[P@](=O)([S][Na])OC[C@H]1O[C@H]2n1cnc2c(=O)[nH]c(N)nc21 [Compound 1-10a]	0.25 to 100	0.25 to 100
> 100	> 100	CO[C@H]1[C@H]2OP(=O)(O)OC[C@H]3O[C@@H](n4cnc5c(N)nnnc54)[C@H](O)[C@@H]3OP(=O)(O)OC[C@H]1O[C@H]2n1cnc2c(=O)[nH]c(N)nc21 [Compound 1-11]	–	–
> 100	> 100	CO[C@H]1[C@H]2OP(=O)(O)OC[C@]34C[C@@H]3[C@@H](n3cnc5c(N)ncnc53)[C@H](O)[C@@H]4OP(=O)(O)OC[C@H]1O[C@H]2c1scc2c(=O)[nH]c(N)nc12 [Compound 1-12]	–	–
0.25 to 100	0.25 to 100	Nc1ncnc2c1ncn2C1OC2COP(=O)(S)OC3C(O)C(n4cnc5c(N)ncnc54)C4CC43COP(=O)(S)OC1C2O (stereo not drawn) [Compound 1-14c]	–	–
–	–	Nc1ncnc2c1ncn2[C@H]1[C@H](O)[C@@H]2O[P@](=O)([S][Na])OC[C@H]3O[C@@H](n4cnc5c(N)ncnc54)[C@H](OP(=O)(O)OC[C@@]24C[C@H]14)[C@@H]3O [Compound 1-15a]	> 100	> 100
–	–	Nc1ncnc2c1ncn2[C@H]1[C@H](O)[C@@H]2O[P@@](=O)([S][Na])OC[C@H]3O[C@@H](n4cnc5c(N)ncnc54)[C@H](OP(=O)(O)OC[C@@]24C[C@H]14)[C@@H]3O [Compound 1-15b]	0.25 to 100	0.25 to 100
0.25 to 100	0.25 to 100	COC1C2COP(=O)(S)OC3C(COP(=O)(O)OC1C(n1cnc4c(=O)[nH]c(N)nc41)O2)C1CC1(n1cnc2c(N)ncnc21)C3O (stereo not drawn) [Compound 1-16a]	–	–
< 0.25	< 0.25	Nc1nc2c(ncn2[C@@H]2O[C@@H]3COP(=O)(O)O[C@@H]4[C@@H](COP(=O)(O)O[C@H]3[C@H]2O)[C@@H]2C[C@@]2(n2cnc3c(N)ncnc32)[C@@H]4O)c(=O)[nH]1 [Compound 1-17]	–	–
–	–	Nc1nc2c(ncn2[C@H]2[C@H](O)[C@@H]3OP(=O)(O)OC[C@H]4O[C@@H](n5cnc6c(N)ncnc65)[C@H](F)[C@@H]4O[P@](=O)([S][Na])OC[C@@]34C[C@H]24)c(=O)[nH]1 [Compound 1-19a]	0.25 to 100	0.25 to 100
–	–	Nc1ncnc2c1ncn2[C@H]1[C@H](O)[C@@H]2O[P@](=O)([S][Na])OC[C@H]3O[C@@H](n4cnc5c(=O)[nH]cnc54)[C@H](F)[C@@H]3OP(=O)(O)OC[C@@]23C[C@H]13 [Compound 1-20a]	0.25 to 100	0.25 to 100
–	–	Nc1nc2c(ncn2[C@@H]2O[C@@H]3CO[P@@](=O)([S][Na])O[C@H]4[C@@H](O)[C@H](n5cnc6c(N)ncnc65)[C@H]5C[C@]54COP(=O)(O)O[C@@H]2[C@@H]3F)c(=O)[nH]1 [Compound 1-22a]	0.25 to 100	0.25 to 100
0.25 to 100	0.25 to 100	Nc1nc2c(ncn2[C@H]2[C@H](O)[C@@H]3OP(=O)(O)OC[C@H]4C[C@@H](n5cnc6c(N)ncnc65)[C@H](O)[C@@H]4OP(=O)(O)OC[C@@]34C[C@H]24)c(=O)[nH]1 [Compound 1-23]	–	–
0.25 to 100	> 100	Nc1nc2c(ncn2[C@@]23C[C@H]2[C@@H]2COP(=O)(O)O[C@H]4[C@@H](F)[C@H](n5cnc6c(N)ncnc65)O[C@@H]4COP(=O)(O)O[C@@H]3[C@@H]2O)c(=O)[nH]1 [Compound 1-24]	–	–
< 0.25	< 0.25	COC1C2COP(=O)(O)OC3CC(c4snc5c(N)ncnc45)OC3COP(=O)(O)OC1C(n1cnc3c(=O)[nH]c(N)nc31)O2 (stereo not drawn) [Compound 1-25]	–	–
< 0.25	< 0.25	Nc1nc2c(ncn2C2OC34COP(=O)(O)OC5C6OCC5(COP(=O)(O)OC2C3C4)OC6n2cnc3c(N)ncnc32)c(=O)[nH]1 (stereo not drawn) [Compound 1-27]	–	–
